Measurements published in patent publication US11242345B2, “Sulfonimidoylpurinone compounds and methods of treatment using the same” (Hoffmann-La Roche Inc., priority 2015, dated 2022).
pEC50, pIC50: −log10 of the molar value. Read-outs that look alike come from different tables or passages of the source.

Legend:
human TLR7 = human TLR7 (Homo sapiens (Human), UniProt Q9NYK1); assay: HEK-Blue-hTLR7 cells assay (SEAP reporter); assay type: cell-based; conditions: 20 hrs
Procedure: A stable HEK-Blue-hTLR7 cell line was purchased from InvivoGen (Cat. #: hkb-htlr7, San Diego, Calif., USA). These cells were designed for studying the stimulation of human TLR7 by monitoring the activation of NF-κB. […] Therefore the reporter expression was regulated by the NF-κB promoter upon stimulation of human TLR7 for 20 hrs. The cell culture supernatant SEAP reporter activity was determined using QUANTI-Blue™ kit (Cat. #: rep-qbl, Invivogen, San Diego, Ca, USA) at a wavelength of 640 nm, a detection medium that turns purple or blue in the presence of alkaline phosphatase.
HEK-Blue-hTLR7 cells were incubated at a density of 250,000-450,000 cells/mL in a volume of 180 μL in a 96-well plate in Dulbecco's Modified Eagle's medium (DMEM) containing 4.5 g/L glucose, 50 U/mL penicillin, […], […], 2 mM L-glutamine, 10% (V/V) heat-inactivated fetal bovine serum for 24 hrs. Then the HEK-Blue-hTLR-7 cells were incubated with addition of 20 μL test compound in a serial dilution in the presence of final DMSO at 1% and perform incubation under 37° C. in a CO2 incubator for 20 hrs. Then 20 μL of the supernatant from each well was incubated with […] Quanti-blue substrate solution at 37° C. for 2 hrs and the absorbance was read at 620-655 nm using a spectrophotometer. The signalling pathway that TLR7 activation leads to downstream NF-κB activation has been widely accepted, and therefore similar reporter assay was also widely used for evaluating TLR7 agonist (Tsuneyasu Kaisho and Takashi Tanaka, Trends in Immunology, Volume 29, Issue 7, July 2008, […]; Hiroaki Hemmi et al, Nature Immunology 3, 196-200 (2002)).

hERG channel = hERG channel (Homo sapiens (Human), UniProt Q12809); assay: hERG channel inhibition assay (patch-clamp, CHOhERG cells); assay type: cell-based; conditions: for IC20: human, CHO cells stably expressing hERG
Sequence of hERG channel (Q12809 whole entry): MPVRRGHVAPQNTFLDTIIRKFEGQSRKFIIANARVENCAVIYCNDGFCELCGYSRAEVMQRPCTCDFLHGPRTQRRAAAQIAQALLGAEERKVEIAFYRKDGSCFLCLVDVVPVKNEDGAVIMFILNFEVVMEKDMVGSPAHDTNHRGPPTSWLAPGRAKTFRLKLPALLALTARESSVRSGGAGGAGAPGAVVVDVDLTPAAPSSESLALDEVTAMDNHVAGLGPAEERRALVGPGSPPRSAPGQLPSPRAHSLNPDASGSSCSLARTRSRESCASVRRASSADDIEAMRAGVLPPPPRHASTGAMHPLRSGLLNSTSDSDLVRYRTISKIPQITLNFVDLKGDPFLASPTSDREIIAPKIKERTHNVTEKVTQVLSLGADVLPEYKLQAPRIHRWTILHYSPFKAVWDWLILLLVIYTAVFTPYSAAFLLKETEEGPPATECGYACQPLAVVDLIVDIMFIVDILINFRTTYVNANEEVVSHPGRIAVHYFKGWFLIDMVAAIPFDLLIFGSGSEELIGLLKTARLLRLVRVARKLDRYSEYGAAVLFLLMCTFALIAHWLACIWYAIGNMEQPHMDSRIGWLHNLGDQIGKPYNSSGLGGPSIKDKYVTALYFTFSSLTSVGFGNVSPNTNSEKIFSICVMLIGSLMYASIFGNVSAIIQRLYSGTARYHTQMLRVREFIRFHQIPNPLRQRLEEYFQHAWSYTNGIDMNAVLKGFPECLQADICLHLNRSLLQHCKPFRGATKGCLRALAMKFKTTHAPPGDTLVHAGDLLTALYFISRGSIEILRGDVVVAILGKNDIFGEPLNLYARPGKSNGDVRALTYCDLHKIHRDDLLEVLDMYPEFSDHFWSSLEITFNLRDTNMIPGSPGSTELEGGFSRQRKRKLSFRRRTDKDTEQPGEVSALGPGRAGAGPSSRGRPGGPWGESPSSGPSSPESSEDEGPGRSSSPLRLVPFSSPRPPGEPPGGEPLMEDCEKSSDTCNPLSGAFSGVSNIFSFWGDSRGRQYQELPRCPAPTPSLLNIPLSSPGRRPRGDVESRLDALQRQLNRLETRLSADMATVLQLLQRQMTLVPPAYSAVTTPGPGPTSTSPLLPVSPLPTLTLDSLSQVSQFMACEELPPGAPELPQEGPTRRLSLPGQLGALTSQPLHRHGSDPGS
Procedure: The hERG K^+ channels were cloned in humans and stably expressed in a CHO (Chinese hamster ovary) cell line. CHOhERG cells were used for patch-clamp (voltage-clamp, whole-cell) experiments. Cells were stimulated by a voltage pattern to activate hERG channels and conduct IKhERG currents (rapid delayed outward rectifier potassium current of the hERG channel). […] Thereafter, the test compound was added to the preparation at increasing concentrations. For each concentration, an attempt was made to reach a steady-state effect, usually, this was achieved within 3-10 min at which time the next highest concentration was applied. The amplitude and kinetics of IKhERG are recorded in each concentration of the drug which were compared to the control values (taken as 100%). (references: Redfern W S, Carlsson L, Davis A S, Lynch W G, MacKenzie I, Palethorpe S, Siegl P K, Strang I, Sullivan A T, Wallis R, Camm A J, Hammond T G. 2003; Relationships between preclinical cardiac electrophysiology, clinical QT interval prolongation and torsade de pointes for a broad range of drugs: evidence for a provisional safety margin in drug development. Cardiovasc. Res. 58:32-45, Sanguinetti M C, Tristani-Firouzi M. 2006; hERG potassium channels and cardiac arrhythmia. Nature 440:463-469, Webster R, Leishman D, Walker D. 2002; Towards a drug concentration effect relationship for QT prolongation and torsades de pointes. Curr. Opin. Drug Discov. Devel. 5:116-26).

CYP3A4 = assay: Cytochrome P450 induction screening assay, mRNA induction in human cryopreserved hepatocytes; assay type: in vitro ADME; conditions: 24 hours
Text: Induction of cytochrome P450 enzymes is associated with an increased prevalence of clinical drug-drug interactions. The clinical consequences of induction may be therapeutic failure caused by a decreased systemic exposure of the drug itself or a co-administered therapy, or toxicity as a result of increased bioactivation. Cytochrome P450 (CYP450) induction assay has been used to understand the potential drug-drug interaction liabilities in drug discovery stage. Human cryopreserved hepatocytes (Life Technologies, Carlsbad, USA) were thawed and cultured in collagen I coated 96-well plates with a density of 52,000 cells/well. After attachment, hepatocyte maintenance medium (HMM; Lonza, Switzerland) was changed after cells were pre-cultured overnight. […] Medium change was then performed and cells were exposed for 24 hours to test compounds, positive inducer compounds, or vehicle (0.1% DMSO), respectively. At the end of the compound exposure period, medium was removed and cells lysed using 100 μL/well MagNA Pure LC RNA isolation tissue lysis buffer (Roche Diagnostics AG, Rotkreuz, Switzerland). […] mRNA isolation was performed using the MagNA Pure 96 system (Roche Diagnostics AG, Rotkreuz, Switzerland) and the respective cellular RNA large volume kit (Roche Diagnostics AG, Rotkreuz, Switzerland) from thawed samples diluted 1:1 with PBS. […] The resulting cDNA was diluted with 40 μL of H2O before using for qRT-PCR. qRT-PCR was performed by using the forward and the reverse primer, the corresponding Universal Probe Library (all from Microsynth, Balgach, Switzerland) and the Taqman Fast advanced master mix (Applied Biosystems), on an ABI 7900 machine (Applied Biosystems). qRT-PCR Ct-values for the respective P450s were put into relation to the Ct-value of RN18S1 (microsynth, Balgach, Switzerland) of the same sample. Doing so, a respective Δct-value was calculated. Using the average of all Δct-values for the vehicle control samples, a ΔΔct-value was calculated for each sample (ΔΔct-value(sample)=Δct-value(sample)−average of Δct-value of all vehicle controls). […] The individual fold induction values were then averaged per treatment condition (usually n=3 biological replicates). […] Relative induction (%)=100×(T−V)/(P−V) • T: fold induction of test compound condition • P: fold induction of positive inducer compound • V: fold induction of vehicle controls Results of CYP3A4 induction are given in Table 5.

[1] = Single dose PK after 1 mg/kg intravenous dosing to rat; assay type: in vivo, Male Wister-Han Rats; conditions: IV 1 mpk
Procedure: The single dose PK in Male Wister-Han Rats was performed to assess pharmacokinetic properties of tested compounds. Two groups of animals were dosed via bolus intravenous (IV) of the respective compound. Blood samples (approximately 20 μL) were collected via Jugular vein or an alternate site at 5 min, 15 min, 30 min, 1 hr, 2 hr, 4 hr, 7 hr and 24 hr post-dose for IV group. Blood samples were placed into tubes containing EDTA-K2 anticoagulant and centrifuged at 5000 rpm for 6 min at 4° C. to separate plasma from the samples. Following centrifugation, the resulting plasma was transferred to clean tubes for bioanalysis on LC/MS/MS. The pharmacokinetic parameters were calculated using non-compartmental module of WinNonlin® Professional 6.2. […] Therefore, compounds of present invention potentially could lead to less dose frequency and lower dose in clinical application.

human TLR8 = human TLR8 (Homo sapiens (Human), UniProt Q9NR97); assay: HEK-Blue-hTLR8 cells assay (SEAP reporter) and selectivity index; assay type: cell-based; conditions: 20 hrs, read-out: HEK Blue hTLR-8 EC50
Sequence of human TLR8 (Q9NR97 27-1041): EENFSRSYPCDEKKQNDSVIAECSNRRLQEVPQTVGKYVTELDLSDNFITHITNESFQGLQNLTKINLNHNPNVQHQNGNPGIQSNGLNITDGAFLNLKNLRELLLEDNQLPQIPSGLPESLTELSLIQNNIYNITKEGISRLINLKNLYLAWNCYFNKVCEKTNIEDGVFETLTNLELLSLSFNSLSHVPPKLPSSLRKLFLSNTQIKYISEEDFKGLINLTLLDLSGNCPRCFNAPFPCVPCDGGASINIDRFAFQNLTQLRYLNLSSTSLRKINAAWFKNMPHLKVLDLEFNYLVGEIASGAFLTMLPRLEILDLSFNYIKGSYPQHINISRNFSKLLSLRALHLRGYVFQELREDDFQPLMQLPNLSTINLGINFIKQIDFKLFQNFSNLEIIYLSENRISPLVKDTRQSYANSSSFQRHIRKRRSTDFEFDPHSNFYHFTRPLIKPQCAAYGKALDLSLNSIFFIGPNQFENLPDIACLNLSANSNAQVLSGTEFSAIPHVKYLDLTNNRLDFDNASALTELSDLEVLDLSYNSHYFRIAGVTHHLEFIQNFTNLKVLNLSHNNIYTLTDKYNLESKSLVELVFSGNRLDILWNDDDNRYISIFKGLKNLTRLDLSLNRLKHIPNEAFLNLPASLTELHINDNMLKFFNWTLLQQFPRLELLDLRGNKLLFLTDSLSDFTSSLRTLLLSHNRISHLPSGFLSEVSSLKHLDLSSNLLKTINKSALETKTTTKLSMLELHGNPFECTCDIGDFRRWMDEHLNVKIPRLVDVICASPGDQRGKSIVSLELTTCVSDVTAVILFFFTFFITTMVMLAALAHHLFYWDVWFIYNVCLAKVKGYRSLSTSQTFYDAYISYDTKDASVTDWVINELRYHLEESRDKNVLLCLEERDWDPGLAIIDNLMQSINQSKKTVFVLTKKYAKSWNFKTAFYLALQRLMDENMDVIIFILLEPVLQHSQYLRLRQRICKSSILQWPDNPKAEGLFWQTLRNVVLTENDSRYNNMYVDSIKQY
Procedure: These cells were designed for studying the stimulation of human TLR8 by monitoring the activation of NF-κB. […] Therefore the reporter expression was regulated by the NF-κB promoter upon stimulation of human TLR8 for 20 hrs.
Then the HEK-Blue-hTLR8 cells were incubated with addition of 20 μL test compound in a serial dilution in the presence of final DMSO at 1% and perform incubation under 37° C. in a CO2 incubator for 20 hrs. […] The signalling pathway that TLR8 activation leads to downstream NF-κB activation has been widely accepted, and therefore similar reporter assay was also widely used for evaluating TLR8 agonist (Tsuneyasu Kaisho and Takashi Tanaka, Trends in Immunology, Volume 29, Issue 7, July 2008, […]; Hiroaki Hemmi et al, Nature Immunology 3, 196-200 (2002)).

[2] = system: patients with chronic hepatitis B; conditions: phase Ib; cited from earlier work
[3] = rat, IV 1 mpk; data from WO2016023511; cited from earlier work
[4] = read-out: HEK-Blue-hTLR7 (EC50 (μM))
[5] = male, Wister-Han, plasma, iv, 1 mg/kg

Sequence of human TLR7 (Q9NYK1 27-1049): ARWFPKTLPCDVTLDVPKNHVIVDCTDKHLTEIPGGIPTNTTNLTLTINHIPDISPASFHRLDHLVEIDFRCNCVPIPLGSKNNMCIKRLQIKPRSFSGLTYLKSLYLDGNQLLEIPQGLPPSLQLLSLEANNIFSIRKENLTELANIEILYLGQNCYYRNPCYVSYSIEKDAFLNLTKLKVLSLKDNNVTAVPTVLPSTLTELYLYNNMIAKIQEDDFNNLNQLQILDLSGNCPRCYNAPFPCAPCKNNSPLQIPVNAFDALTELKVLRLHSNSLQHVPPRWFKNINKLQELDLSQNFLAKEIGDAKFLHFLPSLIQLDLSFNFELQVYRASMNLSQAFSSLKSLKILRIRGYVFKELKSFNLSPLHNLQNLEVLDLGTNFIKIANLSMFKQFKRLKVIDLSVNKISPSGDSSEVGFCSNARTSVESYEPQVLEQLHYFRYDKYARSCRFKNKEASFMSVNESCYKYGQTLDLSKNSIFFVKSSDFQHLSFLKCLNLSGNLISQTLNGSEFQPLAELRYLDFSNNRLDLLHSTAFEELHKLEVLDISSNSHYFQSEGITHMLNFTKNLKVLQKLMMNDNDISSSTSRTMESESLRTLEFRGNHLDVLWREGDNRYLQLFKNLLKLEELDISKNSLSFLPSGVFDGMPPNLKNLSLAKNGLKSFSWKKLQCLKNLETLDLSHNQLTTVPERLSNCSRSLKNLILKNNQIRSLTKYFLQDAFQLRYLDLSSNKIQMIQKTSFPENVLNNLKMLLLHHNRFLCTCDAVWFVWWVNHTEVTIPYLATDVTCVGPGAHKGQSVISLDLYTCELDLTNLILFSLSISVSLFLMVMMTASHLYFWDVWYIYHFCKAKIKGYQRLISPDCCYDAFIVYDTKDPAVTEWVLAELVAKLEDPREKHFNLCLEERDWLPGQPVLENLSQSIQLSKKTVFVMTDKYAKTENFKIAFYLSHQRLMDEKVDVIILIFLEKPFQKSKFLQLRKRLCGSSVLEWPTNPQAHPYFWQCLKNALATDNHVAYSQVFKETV

`CS(=N)(=O)c1nc(N)c2[nH]c(=O)n(Cc3ccccc3)c2n1` (single isomer, unassigned) [Example 1-B, 6-Amino-9-benzyl-2-(methylsulfonimidoyl)-7H-purin-8-one] gave an EC50 (human TLR7; [4]) of 0.18 µM, a pIC50 (hERG channel) of under 4.70 and an IC20 (hERG channel) of over 10 µM.
For `CCCS(=N)(=O)c1nc(N)c2[nH]c(=O)n(Cc3ccccc3)c2n1` (single isomer, unassigned) [Example 4-A, 6-Amino-9-benzyl-2-(propylsulfonimidoyl)-7H-purin-8-one], the “Relative induction of Positive control (10 μM Rifampicin) (%)” value (shortened to “Relative induction … (%)”) (CYP3A4) was −0.63%.
With `CCCS(=N)(=O)c1nc(N)c2[nH]c(=O)n(Cc3ccccc3)c2n1` (single isomer, unassigned) [Example 4-B, 6-Amino-9-benzyl-2-(propylsulfonimidoyl)-7H-purin-8-one] the “Relative induction … (%)” value (CYP3A4) was −0.90% and the EC50 (human TLR7; HEK-Blue-hTLR7 (EC50 (μM))) was 0.086 µM.
Compound `CCCS(=N)(=O)c1nc(N)c2[nH]c(=O)n(Cc3ccc(C)cc3)c2n1` (single isomer, unassigned) [Example 29-A, 6-Amino-2-(propylsulfonimidoyl)-9-(p-tolylmethyl)-7H-purin-8-one] has an EC50 (human TLR7; HEK-Blue-hTLR7 (EC50 (μM))) of 0.019 µM, a pIC50 (hERG channel) of under 4.70 and an IC20 (hERG channel) of over 10 µM.
With `CCCS(=N)(=O)c1nc(N)c2[nH]c(=O)n(Cc3ccc(C)cc3)c2n1` (single isomer, unassigned) [Example 29-B, 6-Amino-2-(propylsulfonimidoyl)-9-(p-tolylmethyl)-7H-purin-8-one] the EC50 (human TLR7; HEK-Blue-hTLR7 (EC50 (μM))) was 0.022 µM and the pIC50 (hERG channel) was under 4.70.
Compound `CCS(=N)(=O)c1nc(N)c2[nH]c(=O)n(Cc3ccc(Cl)cc3)c2n1` (single isomer, unassigned) [Example 70-A, 6-Amino-9-[(4-chlorophenyl)methyl]-2-(ethylsulfonimidoyl)-7H-purin-8-one] has an AUC(0-inf) [1, 5] of 1.63 µM·h, a C0 [1, 5] of 3050 nM and a clearance [1, 5] of 56 mL/min/kg. The “Relative induction … (%)” value (CYP3A4) was 0.42%, the EC50 (human TLR7; [4]) was 0.054 µM and the pEC50 (human TLR8) was under 3.00.
For `CCS(=N)(=O)c1nc(N)c2[nH]c(=O)n(Cc3ccc(Cl)cc3)c2n1` (single isomer, unassigned) [Example 70-B, 6-Amino-9-[(4-chlorophenyl)methyl]-2-(ethylsulfonimidoyl)-7H-purin-8-one], the C0 [1] was 2780 nM, the “Relative induction … (%)” value (CYP3A4) was −0.42% and the EC50 (human TLR7; [4]) was 0.077 µM.
Compound `CCS(=N)(=O)c1nc(N)c2[nH]c(=O)n(Cc3ccc(C)cc3)c2n1` (single isomer, unassigned) [Example 71-A, 6-Amino-2-(ethylsulfonimidoyl)-9-(p-tolylmethyl)-7H-purin-8-one] has an AUC(0-inf) [1, 5] of 1.18 µM·h, a C0 [1, 5] of 1850 nM and a clearance [1, 5] of 84.6 mL/min/kg. The “Relative induction … (%)” value (CYP3A4) was −0.10%, the EC50 (human TLR7; [4]) was 0.134 µM and the pIC50 (hERG channel) was under 4.70. It also gave an IC20 (hERG channel) of over 10 µM.
`CCS(=N)(=O)c1nc(N)c2[nH]c(=O)n(Cc3ccc(C)cc3)c2n1` (single isomer, unassigned) [Example 71-B, 6-Amino-2-(ethylsulfonimidoyl)-9-(p-tolylmethyl)-7H-purin-8-one] gave an EC50 (human TLR7; [4]) of 0.087 µM.
For `CCCS(=N)(=O)c1nc(N)c2[nH]c(=O)n(Cc3ccc(F)cc3)c2n1` (stereo not drawn) [Example 24, 6-Amino-9-[(4-fluorophenyl)methyl]-2-(propylsulfonimidoyl)-7H-purin-8-one], the “Relative induction … (%)” value (CYP3A4) was −0.72%.
With `CS(=O)(=O)c1nc(N)c2[nH]c(=O)n(Cc3ccccc3)c2n1` [Example S-1, reference compound] the C0 [1] was 534 nM.
In the case of `CCCCOc1nc(N)c2c(n1)N(Cc1cccc(CN3CCCC3)c1)CC(=O)N2` [GS-9620], the “ISG15 mRNA induction” value [2] is given as “dose-dependent ISG15 mRNA induction”, the Safety and tolerability [2] is given as “safe, well tolerated” and the C0 [3] is given as 220 nM.
